Experimental data as given in PubChem BioAssay AID1645866 (Buhrlage Lab, Dana-Farber Cancer Institute and Novartis …, 2021).
The source made the active and inactive calls.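 Rule for the calls: active = in confirmatory dose-response testing, peak deubiquitinase inhibition of 30% or more; inactive = the rest.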

Each molecule was assayed against Ubiquitin carboxyl-terminal hydrolase 28 (Homo sapiens) (UniProt Q96RU2) (assay: Concentration-response biochemical assay confirming initial hits as inhibitors of ubiquitin-specific protease 28 (AID 1645866)). Details: purified USP28, ubiquitin-rhodamine fluorescence, 30 min.
Chain of Ubiquitin carboxyl-terminal hydrolase 28 (Homo sapiens) (Q96RU2 whole entry, looked up): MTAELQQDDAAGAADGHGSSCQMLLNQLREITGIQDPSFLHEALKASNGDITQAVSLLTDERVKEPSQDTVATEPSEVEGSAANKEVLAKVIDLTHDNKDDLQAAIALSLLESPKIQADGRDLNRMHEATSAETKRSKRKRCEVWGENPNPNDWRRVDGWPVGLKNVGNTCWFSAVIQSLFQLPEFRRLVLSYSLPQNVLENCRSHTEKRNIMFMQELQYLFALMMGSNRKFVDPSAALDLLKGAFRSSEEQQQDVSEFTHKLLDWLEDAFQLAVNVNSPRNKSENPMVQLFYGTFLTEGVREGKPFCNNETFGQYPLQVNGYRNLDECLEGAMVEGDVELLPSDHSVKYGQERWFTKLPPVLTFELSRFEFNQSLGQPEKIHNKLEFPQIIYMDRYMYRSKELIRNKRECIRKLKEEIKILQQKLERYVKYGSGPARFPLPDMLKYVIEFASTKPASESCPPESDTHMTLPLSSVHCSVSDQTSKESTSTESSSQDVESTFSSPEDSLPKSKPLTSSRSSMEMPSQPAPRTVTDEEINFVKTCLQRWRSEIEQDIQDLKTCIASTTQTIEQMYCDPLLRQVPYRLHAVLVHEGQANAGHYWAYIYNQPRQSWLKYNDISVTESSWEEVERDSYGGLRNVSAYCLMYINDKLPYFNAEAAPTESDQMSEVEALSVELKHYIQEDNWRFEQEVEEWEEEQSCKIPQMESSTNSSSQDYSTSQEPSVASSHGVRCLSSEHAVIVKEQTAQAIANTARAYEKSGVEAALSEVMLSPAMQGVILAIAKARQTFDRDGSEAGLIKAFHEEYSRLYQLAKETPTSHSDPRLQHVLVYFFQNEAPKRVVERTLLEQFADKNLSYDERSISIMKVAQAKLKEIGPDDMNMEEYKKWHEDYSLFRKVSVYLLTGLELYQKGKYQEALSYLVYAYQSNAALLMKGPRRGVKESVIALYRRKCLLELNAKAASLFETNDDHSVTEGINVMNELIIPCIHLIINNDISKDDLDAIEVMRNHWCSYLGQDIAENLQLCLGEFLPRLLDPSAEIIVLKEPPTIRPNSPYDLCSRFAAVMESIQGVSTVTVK
In the case of `CC(C)NS(=O)(=O)c1cccc2c(NC(=O)C(Cc3ccccc3)NC(=O)c3ccccc3)cccc12` (stereo not drawn), the IC50 is reported as > 50 µM (inactive). Molecule `O=C(NCc1ccc(Br)cc1)c1ccc(-c2cccnc2)nc1` has an IC50 of 21.7 µM. Work on `COc1ccc(C(=O)Nc2ccccc2C(=O)NCc2ccccc2)cc1` yielded an IC50 of 37.6 µM. For `CCCCc1ccc(-c2cc(C(=O)NCCN3CCOCC3)c3cc(Br)ccc3n2)cc1`, the IC50 was 14.9 µM. Molecule `Cc1ccc(NC(=O)c2cnc3c(c2)c(=O)n(C)c(=O)n3C)cc1` has an IC50 of 2.07 µM. For `CCOc1ccc(NC(=O)Cn2c(=O)n(CCC(=O)NCc3ccccc3OC)c(=O)c3ccccc32)cc1`, the IC50 was 4.01 µM. `CN(c1ccccc1)c1nc(=O)n(CC(=O)Nc2ccc3c(c2)OCCO3)c2ccccc12` showed an IC50 of 28.2 µM. With `Cn1c(=O)c(C(=O)CN2CCN(c3ccc(O)cc3)CC2)c(N)n(Cc2ccccc2)c1=O` the IC50 was 49.4 µM. In the case of `O=C(Nc1cc(-c2cccnc2)no1)c1ccc(F)c(F)c1`, the IC50 is reported as 10.9 µM. `CC1Cc2ccccc2N1C(=O)Cn1c(=O)cc(O)c2ccccc21` (stereo not drawn) showed an IC50 of 18.8 µM. For `Cc1ccc(NC(=O)CSc2nc3c(cc2C#N)C(=O)CCC3)cc1`, the IC50 was 21 µM. For `Cc1ccc2cccc(OCc3nnc(SCC(=O)c4ccc(Cl)cc4)n3C)c2n1`, the IC50 was 4.77 µM. For `Nc1ccc(F)c(NS(=O)(=O)c2ccccc2)c1`, the IC50 was > 50 µM (inactive). Work on `O=C(Nc1ccc(-c2cn3ccccc3n2)cc1)C1C=C2C=C(Br)C=CC2OC1=O` (stereo not drawn) yielded an IC50 of 1.97 µM. `COc1cccc(NC(=O)c2ccc(-c3csc(C)n3)cc2)c1` showed an IC50 of 6.69 µM. In the case of `O=C(Nc1cc(Cl)ccc1-n1cncn1)c1ccc(S(=O)(=O)N2CCCC2)cc1`, the IC50 is reported as > 50 µM (inactive). With `COC(=O)CC1CC23OC2(C(=O)c2c(O)cccc2C3=O)C(C)O1` (stereo not drawn) the IC50 was 3.55 µM. `CCCCc1nc2sc3c(NCCN4CCOCC4)ncnc3c2c2c1CCC2` was tested, and the IC50 was 0.549 µM. In the case of `Cc1nn(Cc2ccccc2)c(Cl)c1C(=O)NC1CCCc2ccccc21` (stereo not drawn), the IC50 is reported as > 50 µM (inactive). In the case of `COc1ccc(NC(=O)C2Oc3ccc(C)cc3NC2=O)cc1Cl` (stereo not drawn), the IC50 is reported as 19.5 µM. In the case of `CC(=O)c1ccc(NC(=O)CC2C(=O)Nc3nc4ccccc4n32)cc1` (stereo not drawn), the IC50 is reported as 27.3 µM. `O=C(O)c1ccccc1C(=O)Nc1ccc(SC(C(=O)Nc2cccc(Cl)c2)c2ccccc2)cc1` (stereo not drawn) gave an IC50 of 22.4 µM. In the case of `O=C(COc1nsnc1N1CCOCC1)Nc1ccccc1F`, the IC50 is reported as > 50 µM (inactive). `CCCC1Cc2c(sc3nc(SCC)nc(N)c23)CO1` (stereo not drawn) gave an IC50 of 16.4 µM. Work on `CSc1ncccc1C(=O)NC1(O)C(=O)c2ccccc2C1=O` yielded an IC50 of 29 µM. `COc1ccc2nc3c(cc2c1)c(=O)n(C)c1c3c(=O)n(-c2ccccc2)c(=O)n1-c1ccccc1` was tested, and the IC50 was > 50 µM (inactive). `CC(=O)Nc1cc(-c2cccc(O)c2)cn2c(-c3cnn(C)c3)cnc12` gave an IC50 of 5.99 µM. In the case of `O=C(Cc1ccccc1F)N1CCC2(CC1)CC1(CO2)Nc2ccccc2-n2cccc21` (stereo not drawn), the IC50 is reported as > 50 µM (inactive). With `COc1cccc(NC(=O)Nc2ccc(NC(C)=O)cc2)c1` the IC50 was 4.04 µM. For `Cc1ccc(Nc2nc(Nc3cccc(Cl)c3)nc3nccnc23)cc1`, the IC50 was > 50 µM (inactive). For `O=C(CC1C(=O)N(Cc2cccnc2)c2nc3ccccc3n21)Nc1cccc2ccccc12` (stereo not drawn), the IC50 was > 50 µM (inactive). In the case of `O=C(Nc1cccc(Cl)c1)N1CCN(c2cc(C(F)(F)F)ccn2)CC1`, the IC50 is reported as 25.1 µM. `CS(=O)(=O)NC1CCCN(C(=O)Nc2cccc3ccccc23)C1` (stereo not drawn) gave an IC50 of 30.5 µM. With `CCCc1nc2sc3c(NC4CCCCC4)ncnc3c2c2c1CCC2` the IC50 was < 0.05 µM. For `Cc1nn(-c2ccccc2)c(C)c1C(=O)OCC(=O)Nc1cccc(C#N)c1`, the IC50 was 15.9 µM. `Cc1ccc(O)c(-c2cc(C(=O)Nc3ccccc3Cl)[nH]n2)c1` showed an IC50 of 17.1 µM. In the case of `COc1cccc(N2CCN(C(=O)c3cc(NC(C)=O)cc4nc(C)ccc34)CC2)c1`, the IC50 is reported as > 50 µM (inactive). `O=C(Cn1c(NCc2ccccc2)nc2ccccc21)NCC(F)(F)F` showed an IC50 of 46.6 µM. Molecule `CCOc1ccc(NC(=O)CSc2nc3n[nH]c(C)c3c(=N)n2-c2ccc(OC)cc2)cc1` has an IC50 of 34 µM. For `COc1ccc(NC(=O)CS(=O)(=O)c2[nH]c(-c3ccc(C)cc3)nc2-c2ccccc2)cc1Cl`, the IC50 was 31 µM. In the case of `Cc1sc2nc(CN3CCCC3)nc(NCCc3ccc(Cl)cc3)c2c1C`, the IC50 is reported as > 50 µM (inactive). For `O=c1ccc(-c2noc(-c3ccc4cc[nH]c4c3)n2)c[nH]1`, the IC50 was > 50 µM (inactive). Work on `COc1cc([C@@H]2c3cc4c(cc3C[C@@H]3COC(=O)[C@H]32)OCO4)cc(OC)c1OC` yielded an IC50 of 18.7 µM. `COc1ccc(-c2nc(SCC(=O)Nc3ccc(C(C)=O)cc3)n[nH]2)cc1` gave an IC50 of 15.5 µM. `Cc1cc(=O)oc2cc(OCC(=O)Nc3cc(Cl)ccc3N3CCOCC3)ccc12` showed an IC50 of 41.2 µM. For `CC(C)(C)C(=O)C1C2C(=O)N(Cc3ccccc3)C(=O)C2C2c3ccccc3C=CN12` (stereo not drawn), the IC50 was > 50 µM (inactive). In the case of `Nc1c(-c2ccc(Cl)cc2)cnc2nc(Sc3ncc(C(F)(F)F)cc3Cl)nn12`, the IC50 is reported as > 50 µM (inactive). In the case of `CC(=O)Nc1ccc(-n2cnc(C(=O)NCc3ccc(C)cc3)c2)nc1`, the IC50 is reported as 19.1 µM. With `Cc1cccc(C(=O)Nc2ccc3c(c2)nc(CSc2nccc(C)n2)n3C)c1` the IC50 was < 0.05 µM. `CC1CCN(c2cc(-n3cnc(C(=O)N4CCCC(C)C4)c3)ncn2)CC1` (stereo not drawn) gave an IC50 of 10.1 µM. With `Cc1cccc(NC(=O)c2nc(N3CCSCC3)c3cnn(C)c3n2)c1` the IC50 was > 50 µM (inactive). With `COc1ccc(NC(=O)c2nnn(-c3ccccc3F)c2C)cc1OC` the IC50 was 2.61 µM. `COc1ccc2[nH]c3c(c2c1)CCN1C(=O)N(c2ccccc2C(=O)NCc2ccccc2)C(=O)[C@]31C` gave an IC50 of 46.4 µM. In the case of `CC1=C(C)C(N(c2ccccc2)c2ccccc2)N(CCC(C)C)C1=O` (stereo not drawn), the IC50 is reported as 24.9 µM. With `Cc1ccc2c(=O)c(C(=O)Nc3ccccc3)cn(CC(=O)NC3CCCCC3)c2n1` the IC50 was > 50 µM (inactive). With `CCCc1nc2sc3c(N(CC)CC)ncnc3c2c2c1CCC2` the IC50 was 3.77 µM. `O=S(=O)(Cc1nnc(-c2ccccc2C(F)(F)F)o1)c1ccc(Cl)cc1` was tested, and the IC50 was > 50 µM (inactive). For `CN(Cc1ccccc1)S(=O)(=O)c1ccc(S(=O)(=O)N2CCN(C(=O)c3cccnc3)CC2)cc1`, the IC50 was 18.8 µM. With `C/C=C\C1=CC(=O)[C@]23C[C@H]2[C@]2(C)CO[C@@]1(O)[C@@]3(O)O2` the IC50 was > 50 µM (inactive). `CCOc1ccc2c(c1)c(=O)c(C(=O)c1ccc(C)cc1)cn2CC(=O)Nc1ccc(OC)c(OC)c1` gave an IC50 of 0.686 µM. Molecule `COc1cccc(C(=O)Oc2ccc3c(=O)c(-c4ccc(OC)c(OC)c4)coc3c2)c1` has an IC50 of 0.14 µM. `NC(=O)c1nnn(-c2ccc(NC(=O)c3ccc(F)c(F)c3)cc2)n1` showed an IC50 of 11.2 µM. With `COC(=O)c1ccc(Cn2cnc3ccc(Br)cc3c2=O)o1` the IC50 was 2.07 µM. For `CC1(C)CC2CC(C)(CN2Cc2c(O)ccc3ccccc23)C1` (stereo not drawn), the IC50 was > 50 µM (inactive). `CCc1ccc(-c2nc(SCC(=O)Nc3ccc4[nH]c(=O)[nH]c4c3)n[nH]2)cc1` gave an IC50 of 23.5 µM. `O=c1c(S(=O)(=O)c2cc(F)cc(F)c2)c[nH]c2cc(Cl)ccc12` showed an IC50 of 20.6 µM. Work on `O=C(NCc1cccnc1)c1cnn2c(C(F)(F)F)cc(-c3ccc(F)cc3)nc12` yielded an IC50 of 47.4 µM. `CC1CCN(C(=O)c2cn(-c3cc(N4CCC(C)CC4)ncn3)cn2)CC1` showed an IC50 of 15.1 µM. For `Cc1cc(C)cc(N(CCC(=O)Nc2ccc(N3CCOCC3)cc2)S(=O)(=O)c2ccc(Cl)cc2)c1`, the IC50 was 12.9 µM. With `Cc1ccc(Cn2c(=O)c3ccccc3n3c(CCC(=O)N4CCN(c5ccccn5)CC4)nnc23)cc1` the IC50 was 5.55 µM. Molecule `O=C(Nc1ccccc1Br)c1ccn(COc2ccccc2F)n1` has an IC50 of 18 µM. For `N#Cc1cccc(NC(=O)Cn2cccc(-c3nc(-c4ccccc4)no3)c2=O)c1`, the IC50 was > 50 µM (inactive). For `COc1cccc(-c2nc3cnccn3c2NCc2ccc3c(c2)OCO3)c1`, the IC50 was > 50 µM (inactive).
